Experimental data as given in patent publication US10961238B2, “Modulators of hedgehog (Hh) signaling pathway” (E-THERAPEUTICS PLC, priority 2016, dated 2021).
Read-outs that look alike come from different tables or passages of the source.

Test system: C3H10T1/2 cells
Experiment: C3H assay: differentiation of C3H10T1/2 cells by mSHH, measurement of alkaline phosphatase
Assay type: cell-based, mouse
Conditions: read-out: IC50 Ranges
[1] = Mus musculus, C3H 10T1/2, C3H10T1/2 cells stimulated with mSHH for 72 hours, alkaline phosphatase activity
[2] = C3H10T1/2 cells stimulated with mSHH for 72 hours, alkaline phosphatase activity

| Structure (SMILES) | IC50 [1] | further results |
| --- | --- | --- |
| O=C(O[C@@H]1CCOC1)N1CC(S(=O)(=O)N2CCC(c3c[nH]c4ncccc34)CC2)C1 [Compound 196, [(3R)-oxolan-3-yl]3-[4-(1H-pyrrolo[2,3-b]pyridin-3-yl)piperidin-1-yl]sulfonylaze-tidine-1-carboxylate] | 100 to 1000 nM | – |
| O=C(O[C@H]1CCOC1)N1CC(S(=O)(=O)N2CCC(c3c[nH]c4ncccc34)CC2)C1 [Compound 197, [(3S)-oxolan-3-yl]3-[4-(1H-pyrrolo[2,3-b]pyridin-3-yl)piperidin-1-yl]sulfonylaze-tidine-1-carboxylate] | 10 to 100 nM | – |
| O=C(OC1CCC1)N1CC(S(=O)(=O)N2CCC(c3c[nH]c4ncccc34)CC2)C1 [Compound 198, cyclobutyl 3-[4-(1H-pyrrolo[2,3-b]pyridin-3-yl)piperidin-1-yl]sulfonylaze-tidine-1-carboxylate] | 10 to 100 nM | – |
| CC1(COC(=O)N2CC(S(=O)(=O)N3CCC(c4c[nH]c5ncccc45)CC3)C2)COC1 [Compound 199, (3-methyloxetan-3-yl)methyl 3-[4-(1H-pyrrolo[2,3-b]pyridin-3-yl)piperidin-1-yl]sulfonylaze-tidine-1-carboxylate] | 10 to 100 nM | – |
| CC[C@@H](C)OC(=O)N1CC(S(=O)(=O)N2CCC(c3c[nH]c4ncccc34)CC2)C1 [Compound 200, [(2R)-butan-2-yl]3-[4-(1H-pyrrolo[2,3-b]pyridin-3-yl)piperidin-1-yl]sulfonylaze-tidine-1-carboxylate] | 10 to 100 nM | – |
| O=C(OCC1CCC1)N1CC(S(=O)(=O)N2CCC(c3c[nH]c4ncccc34)CC2)C1 [Compound 201, cyclobutylmethyl 3-[4-(1H-pyrrolo[2,3-b]pyridin-3-yl)piperidin-1-yl]sulfonylaze-tidine-1-carboxylate] | 10 to 100 nM | – |
| Cc1noc(C)c1COC(=O)N1CC(S(=O)(=O)N2CCC(c3ccncc3)CC2)C1 [Compound 202, (3,5-dimethyl-1,2-oxazol-4-yl)methyl 3-(4-pyridin-4-ylpiperidin-1-yl)sulfonylaze-tidine-1-carboxylate] | 100 to 1000 nM | – |
| Cc1noc(C)c1CNC(=O)N1CC(S(=O)(=O)N2CCC(c3ccncc3)CC2)C1 [Compound 203, N-[(3,5-dimethyl-1,2-oxazol-4-yl)methyl]-3-(4-pyridin-4-ylpiperidin-1-yl)sulfonylaze-tidine-1-carboxamide] | 1000 to 10000 nM | – |
| O=C(OCC1CC1)N1CC(S(=O)(=O)N2CCC(c3c[nH]c4ncccc34)CC2)C1 [Compound 204, cyclopropylmethyl 3-[4-(1H-pyrrolo[2,3-b]pyridin-3-yl)piperidin-1-yl]sulfonylaze-tidine-1-carboxylate] | 10 to 100 nM | – |
| Cc1noc(C)c1CC(=O)N1CC(S(=O)(=O)N2CCC(c3ccncc3)CC2)C1 [Compound 205, 2-(3,5-dimethyl-1,2-oxazol-4-yl)-1-[3-(4-pyridin-4-ylpiperidin-1-yl)sulfonylaze-tidin-1-yl]ethanone] | 10 to 100 nM | – |
| CCN(C(=O)N1CC(S(=O)(=O)N2CCC(c3c[nH]c4ncccc34)CC2)C1)C(C)C [Compound 206, N-ethyl-N-propan-2-yl-3-[4-(1H-pyrrolo[2,3-b]pyridin-3-yl)piperidin-1-yl]sulfonylaze-tidine-1-carboxamide] | 10 to 100 nM | – |
| O=C(OCc1cccc(Oc2ccccc2)c1)N1CC(S(=O)(=O)N2CCC(c3c[nH]c4ncccc34)CC2)C1 [Compound 207, (3-phenoxyphenyl) methyl 3-[4-(1H-pyrrolo [2,3-b]pyridin-3-yl)piperidin-1-yl]sulfonylaze-tidine-1-carboxylate] | 10 to 100 nM | – |
| Cc1cc(C)cc(OC(=O)N2CC(S(=O)(=O)N3CCC(c4c[nH]c5ncccc45)CC3)C2)c1 [Compound 208, (3,5-dimethylphenyl) 3-[4-(1H-pyrrolo[2,3-b]pyridin-3-yl)piperidin-1-yl]sulfonylaze-tidine-1-carboxylate] | 100 to 1000 nM | – |
| COc1ccc(COC(=O)N2CC(S(=O)(=O)N3CCC(c4c[nH]c5ncccc45)CC3)C2)cc1F [Compound 209, (3-fluoro-4-methoxyphenyl) methyl 3-[4-(1H-pyrrolo[2,3-b]pyridin-3-yl)piperidin-1-yl]sulfonylaze-tidine-1-carboxylate] | 10 to 100 nM | – |
| O=C(OC1CCNCC1)N1CC(S(=O)(=O)N2CCC(c3c[nH]c4ncccc34)CC2)C1 [Compound 210, piperidin-4-yl 3-[4-(1H-pyrrolo[2,3-b]pyridin-3-yl)piperidin-1-yl]sulfonylaze-tidine-1-carboxylate] | 100 to 1000 nM | – |
| CC(C)(C)OC(=O)N1CCC(OC(=O)N2CC(S(=O)(=O)N3CCC(c4c[nH]c5ncccc45)CC3)C2)CC1 [Compound 211, tert-butyl 4-[3-[4-(1H-pyrrolo[2,3-b]pyridin-3-yl)piperidin-1-yl]sulfonylaze-tidine-1-carbonyl] oxypiperidine-1-carboxylate] | 10 to 100 nM | – |
| O=C(Oc1cccnc1)N1CC(S(=O)(=O)N2CCC(c3c[nH]c4ncccc34)CC2)C1 [Compound 212, pyridin-3-yl 3-[4-(1H-pyrrolo [2,3-b]pyridin-3-yl)piperidin-1-yl]sulfonylaze-tidine-1-carboxylate] | – | IC50 (Mus musculus, C3H 10T1/2, 72 h): 10 to 100 nM |
| O=C(OCc1cccc([N+](=O)[O-])c1)N1CC(S(=O)(=O)N2CCC(c3c[nH]c4ncccc34)CC2)C1 [Compound 213, (3-nitrophenyl) methyl 3-[4-(1H-pyrrolo[2,3-b]pyridin-3-yl)piperidin-1-yl]sulfonylaze-tidine-1-carboxylate] | – | IC50 [2]: < 10 nM |

| Structure (SMILES) | IC50 [1] | further results |
| --- | --- | --- |
| COc1ccc(COC(=O)N2CC(S(=O)(=O)N3CCC(c4c[nH]c5ncccc45)CC3)C2)cc1 [Compound 214, (4-methoxyphenyl) methyl 3-[4-(1H-pyrrolo[2,3-b]pyridin-3-yl)piperidin-1-yl]sulfonylaze-tidine-1-carboxylate] | 10 to 100 nM | – |
| COc1cccc(OC(=O)N2CC(S(=O)(=O)N3CCC(c4c[nH]c5ncccc45)CC3)C2)c1 [Compound 215, (3-methoxyphenyl) 3-[4-(1H-pyrrolo[2,3-b]pyridin-3-yl)piperidin-1-yl]sulfonylaze-tidine-1-carboxylate] | 10 to 100 nM | – |
| O=C(OC1CCOCC1)N1CC(S(=O)(=O)N2CCC(c3c[nH]c4ncccc34)CC2)C1 [Compound 218, oxan-4-yl 3-[4-(1H-pyrrolo[2,3-b]pyridin-3-yl)piperidin-1-yl]sulfonylaze-tidine-1-carboxylate] | 10 to 100 nM | – |
| COc1ccc(OC(=O)N2CC(S(=O)(=O)N3CCC(c4c[nH]c5ncccc45)CC3)C2)cc1 [Compound 219, (4-methoxyphenyl) 3-[4-(1H-pyrrolo[2,3-b]pyridin-3-yl)piperidin-1-yl]sulfonylaze-tidine-1-carboxylate] | 10 to 100 nM | – |
| O=C(OC1COCOC1)N1CC(S(=O)(=O)N2CCC(c3c[nH]c4ncccc34)CC2)C1 [Compound 220, 1,3-dioxan-5-yl 3-[4-(1H-pyrrolo[2,3-b]pyridin-3-yl)piperidin-1-yl]sulfonylaze-tidine-1-carboxylate] | 10 to 100 nM | – |
| CC(C)(C)OC(=O)N1CC(S(=O)(=O)N2CCC(c3c[nH]c4nccc(F)c34)CC2)C1 [Compound 221, tert-butyl 3-[4-(4-fluoro-1H-pyrrolo[2,3-b]pyridin-3-yl)piperidin-1-yl]sulfonylaze-tidine-1-carboxylate] | 100 to 1000 nM | – |
| O=C(OC1COC1)N1CC(S(=O)(=O)N2CCC(c3c[nH]c4ncccc34)CC2)C1 [Compound 222, oxetan-3-yl 3-[4-(1H-pyrrolo[2,3-b]pyridin-3-yl)piperidin-1-yl]sulfonylaze-tidine-1-carboxylate] | 100 to 1000 nM | – |
| Cc1[nH]c2ncccc2c1C1CCN(S(=O)(=O)C2CN(C(=O)OC(C)(C)C)C2)CC1 [Compound 224] | 1000 to 10000 nM | – |
| CC(C)(C)OC(=O)N1CC(S(=O)(=O)N2CCN(c3nsc4ccccc34)CC2)C1 [Compound 225, tert-butyl 3-[4-(1,H-benzothiazol-3-yl)piperazin-1-yl]sulfonylaze-tidine-1-carboxylate] | 1000 to 10000 nM | – |
| CC(C)(C)OC(=O)N1CC(S(=O)(=O)N2CCN(c3c[nH]c4ncccc34)CC2)C1 [Compound 226, tert-Butyl 3-[4-(1H-pyrrolo[2,3-b]pyridin-3-yl)piperazin-1-yl]sulfonylazetidine-1-carboxylate] | 1000 to 10000 nM | – |
| COc1ccc(N2CCN(S(=O)(=O)C3CCN(C(=O)OC(C)(C)C)CC3)CC2)cc1 [Compound 227, tert-butyl 4-[4-(4-methoxyphenyl)piperazin-1-yl]sulfonylpiper-idine-1-carboxylate] | 1000 to 10000 nM | – |
| CC(C)(C)OC(=O)N1CCC(S(=O)(=O)N2CC=C(c3n[nH]c4ncccc34)CC2)CC1 [Compound 229, tert-butyl 4-[[4-(1H-pyrazolo[3,4-b]pyridin-3-yl)-3,6-dihydro-2H-pyridin-1-yl]sulfonyl] piperidine-1-carboxylate] | – | IC50 [2]: 1000 to 10000 nM |
| CC(C)(C)OC(=O)N1CCC(S(=O)(=O)N2CC=C(c3csc4cccnc34)CC2)CC1 [Compound 230, tert-butyl 4-[(4-thieno[3,2-b]pyridin-3-yl-3,6-dihydro-2H-pyridin-1-yl)sulfonyl]pip eridine-1-carboxylate] | 100 to 1000 nM | – |
| CC(C)(C)OC(=O)N1CC(S(=O)(=O)N2CC=C(c3coc4cccnc34)CC2)C1 [Compound 231, tert-butyl 3-[(4-furo[3,2-b]pyridin-3-yl-3,6-dihydro-2H-pyridin-1-yl)sulfonyl]aze tidine-1-carboxylate] | 100 to 1000 nM | – |
| CC(C)(C)OC(=O)N1CCC(S(=O)(=O)N2CC=C(c3coc4cccnc34)CC2)CC1 [Compound 232, tert-butyl 4-[(4-furo[3,2-b]pyridin-3-yl-3,6-dihydro-2H-pyridin-1-yl)sulfonyl]pip eridine-1-carboxylate] | 100 to 1000 nM | – |
| CC(C)(C)OC(=O)N1CCC(S(=O)(=O)N2CC=C(c3c[nH]c4ncncc34)CC2)CC1 [Compound 233, tert-butyl 4-[[4-(7H-pyrrolo[2,3-d]pyrimidin-5-yl)-3,6-dihydro-2H-pyridin-1-yl]sulfonyl] piperidine-1-carboxylate] | 1000 to 10000 nM | – |
| CC(C)(C)OC(=O)N1CC(S(=O)(=O)N2CC=C(c3cnc4occc4c3)CC2)C1 [Compound 234, tert-butyl 3-[(4-furo[2,3-b]pyridin-5-yl-3,6-dihydro-2H-pyridin-1-yl)sulfonyl]aze tidine-1-carboxylate] | 100 to 1000 nM | – |
